The assay has as its target bovine cardiac myofibrils (full-length cardiac myosin ATPase in the native sarcomere) (Bos taurus (Bovine), UniProt Q9BE39). Briefly: Skinned bovine cardiac myofibril ATPase assay (PK/LDH-coupled). It counts as biochemical. The settings on record: Ca2+ activating to 75% of maximal rate; for CDMF75 IC15: concentration giving 15% inhibition; for IC50: read-out: CDMF75 IC50. The procedure, abridged: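 Triton-skinned bovine left-ventricle myofibrils (1 mg/mL) in PM 12 buffer (12 mM PIPES, 2 mM MgCl2, pH 6.8) with 50 μM ATP, 0.6 mM EGTA and CaCl2 set for 50% or 75% activation. Steady-state ATPase inhibition followed by PK/LDH-coupled NADH oxidation at 340 nm.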

The values that follow come from patent publication US12065436B2, “Cardiac sarcomere inhibitors” (Cytokinetics, Inc., priority 2018, dated 2024).

Where only a bound is given, the exact number is not on record here.

Chain of bovine cardiac myofibrils (full-length cardiac myosin ATPase in the native sarcomere) (Q9BE39 whole entry): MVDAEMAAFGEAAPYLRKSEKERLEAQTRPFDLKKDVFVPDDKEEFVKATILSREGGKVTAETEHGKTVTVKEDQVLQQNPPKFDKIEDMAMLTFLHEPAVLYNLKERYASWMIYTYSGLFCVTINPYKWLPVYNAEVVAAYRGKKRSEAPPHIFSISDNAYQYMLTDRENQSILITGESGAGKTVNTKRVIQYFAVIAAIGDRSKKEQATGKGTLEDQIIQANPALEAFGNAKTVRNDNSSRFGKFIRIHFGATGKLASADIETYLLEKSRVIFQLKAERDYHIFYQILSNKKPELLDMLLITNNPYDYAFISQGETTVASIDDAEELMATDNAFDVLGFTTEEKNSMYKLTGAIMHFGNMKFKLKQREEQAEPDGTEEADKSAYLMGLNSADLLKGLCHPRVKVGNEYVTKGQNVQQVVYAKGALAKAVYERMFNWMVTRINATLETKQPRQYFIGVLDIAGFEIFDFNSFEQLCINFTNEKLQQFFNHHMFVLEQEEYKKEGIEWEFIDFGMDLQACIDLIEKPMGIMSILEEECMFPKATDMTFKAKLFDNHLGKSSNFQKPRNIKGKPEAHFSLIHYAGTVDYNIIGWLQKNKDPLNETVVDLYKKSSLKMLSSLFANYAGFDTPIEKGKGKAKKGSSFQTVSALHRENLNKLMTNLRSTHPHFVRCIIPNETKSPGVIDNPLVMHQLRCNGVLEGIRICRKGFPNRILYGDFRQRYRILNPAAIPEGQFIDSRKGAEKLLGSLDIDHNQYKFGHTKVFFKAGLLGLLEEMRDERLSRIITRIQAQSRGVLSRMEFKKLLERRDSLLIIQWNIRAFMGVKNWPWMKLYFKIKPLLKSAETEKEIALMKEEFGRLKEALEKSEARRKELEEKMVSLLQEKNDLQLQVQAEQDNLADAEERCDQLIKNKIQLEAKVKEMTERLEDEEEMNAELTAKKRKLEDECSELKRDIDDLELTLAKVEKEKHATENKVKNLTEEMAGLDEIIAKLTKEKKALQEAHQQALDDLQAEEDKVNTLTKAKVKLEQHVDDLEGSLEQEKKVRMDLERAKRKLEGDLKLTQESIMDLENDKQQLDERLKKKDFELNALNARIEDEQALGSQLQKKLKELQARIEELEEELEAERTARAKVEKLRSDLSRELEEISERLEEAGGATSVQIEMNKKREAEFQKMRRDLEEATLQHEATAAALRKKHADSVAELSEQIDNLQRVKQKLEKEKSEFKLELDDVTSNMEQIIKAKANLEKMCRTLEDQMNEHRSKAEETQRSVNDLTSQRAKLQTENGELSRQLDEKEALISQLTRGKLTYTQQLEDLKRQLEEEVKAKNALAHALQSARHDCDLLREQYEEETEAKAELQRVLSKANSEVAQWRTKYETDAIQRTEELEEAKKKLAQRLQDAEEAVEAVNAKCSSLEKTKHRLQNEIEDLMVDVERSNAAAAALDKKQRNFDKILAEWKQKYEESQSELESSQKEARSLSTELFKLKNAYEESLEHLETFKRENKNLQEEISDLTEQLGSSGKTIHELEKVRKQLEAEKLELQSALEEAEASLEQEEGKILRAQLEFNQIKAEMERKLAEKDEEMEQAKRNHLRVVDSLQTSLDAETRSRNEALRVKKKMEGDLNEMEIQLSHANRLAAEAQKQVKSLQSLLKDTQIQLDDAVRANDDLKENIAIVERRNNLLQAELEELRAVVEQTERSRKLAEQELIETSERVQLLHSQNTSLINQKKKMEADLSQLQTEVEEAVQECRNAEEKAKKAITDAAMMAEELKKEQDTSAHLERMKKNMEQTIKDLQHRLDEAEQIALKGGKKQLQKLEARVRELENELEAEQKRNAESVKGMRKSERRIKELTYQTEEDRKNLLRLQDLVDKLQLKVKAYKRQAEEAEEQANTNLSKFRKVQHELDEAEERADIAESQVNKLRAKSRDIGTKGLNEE
Chain of bovine cardiac myofibrils (full-length cardiac myosin ATPase in the native sarcomere) (P85100 whole entry partner): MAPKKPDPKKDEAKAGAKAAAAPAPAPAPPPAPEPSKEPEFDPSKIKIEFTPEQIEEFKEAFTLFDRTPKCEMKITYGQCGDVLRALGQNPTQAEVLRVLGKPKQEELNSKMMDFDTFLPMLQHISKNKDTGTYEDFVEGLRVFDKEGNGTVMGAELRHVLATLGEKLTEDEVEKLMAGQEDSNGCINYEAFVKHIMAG
Chain of bovine cardiac myofibrils (full-length cardiac myosin ATPase in the native sarcomere) (Q3SZE5 whole entry partner): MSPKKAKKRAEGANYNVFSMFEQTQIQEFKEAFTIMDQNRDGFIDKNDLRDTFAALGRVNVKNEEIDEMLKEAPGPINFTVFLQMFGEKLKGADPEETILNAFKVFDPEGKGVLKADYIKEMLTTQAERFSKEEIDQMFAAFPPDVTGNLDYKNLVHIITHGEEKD

Take `CCc1nc(-c2ccc3c(c2)CC[C@H]3NC(=O)c2ccc(=O)n(CCO)c2)no1` [Compound 605, (R)-N-(5-(5-ethyl-1,2,4-oxadiazol-3-yl)-2,3-dihydro-1H-inden-1-yl)-1-(2-hydroxyethyl)-6-oxo-1,6-dihydropyridine-3-carboxamide]: the “CDMF75 IC15” value turned out to be 0.8 µM and the IC50 is 3.4 µM.

Consider `CCc1nc(-c2ccc3c(c2)OC[C@H]3NC(=O)OCCO)no1` [Compound 744, 2-hydroxyethyl N-[(3S)-6-(5-ethyl-1,2,4-oxadiazol-3-yl)-2,3-dihydro-1-benzofuran-3-yl]carbamate], for which the “CDMF75 IC15” value worked out at 0.3 µM and the IC50 turned out to be 1.3 µM.

For `Cc1cc(C(=O)N[C@@H]2CCc3cc(-c4nc(C)co4)ccc32)ccn1` [Compound 172, (R)-2-methyl-N-(5-(4-methyloxazol-2-yl)-2,3-dihydro-1H-inden-1-yl)isonicotinamide], the “CDMF75 IC15” value was found to be 8.1 µM and the IC50 was over 39.2 µM.

Regarding `O=C(NC1CCc2cc(-c3noc(C(F)F)n3)ccc21)c1cnc(Cl)s1` (stereo not shown) [Compound 8, 2-chloro-N-(5-(5-(difluoromethyl)-1,2,4-oxadiazol-3-yl)-2,3-dihydro-1H-inden-1-yl)thiazole-5-carboxamide], the “CDMF75 IC15” value was 0.4 µM and the IC50 is 1.4 µM.

On to `Cn1nccc1C(=O)N[C@@H]1CCc2cc(-c3ccccc3)ccc21` [Compound 372, (R)-1-methyl-N-(5-phenyl-2,3-dihydro-1H-inden-1-yl)-1H-pyrazole-5-carboxamide], for which the “CDMF75 IC15” value came to 3.5 µM and the IC50 came out at 15.7 µM.

On to `Cc1noc(-c2ccc3c(c2)OC[C@H]3NC(=O)c2ccnn2C)n1` [Compound 314, (S)-1-methyl-N-(6-(3-methyl-1,2,4-oxadiazol-5-yl)-2,3-dihydrobenzofuran-3-yl)-1H-pyrazole-5-carboxamide], for which the “CDMF75 IC15” value was 0.7 µM and the IC50 stood at 2.4 µM.

For the compound `Cc1nn(C)cc1C(=O)N[C@@H]1COc2cc(-c3noc(C(F)F)n3)ccc21` [Compound 208, (S)-N-(6-(5-(difluoromethyl)-1,2,4-oxadiazol-3-yl)-2,3-dihydrobenzofuran-3-yl)-1,3-dimethyl-1H-pyrazole-4-carboxamide], the “CDMF75 IC15” value worked out at 0.5 µM and the IC50 stood at 1.6 µM.

In the case of `CCc1nc(-c2ccc3c(c2)OC[C@H]3NC(=O)N(C)CCO)no1` [Compound 746, (S)-3-(6-(5-ethyl-1,2,4-oxadiazol-3-yl)-2,3-dihydrobenzofuran-3-yl)-1-(2-hydroxyethyl)-1-methylurea], the “CDMF75 IC15” value is 4.6 µM and the IC50 came to 21.3 µM.

Consider `Cc1nn(C)cc1C(=O)NC1CCc2cc(-c3noc(CO)n3)ccc21` (stereo not shown) [Compound 79, N-(5-(5-(hydroxymethyl)-1,2,4-oxadiazol-3-yl)-2,3-dihydro-1H-inden-1-yl)-1,3-dimethyl-1H-pyrazole-4-carboxamide], for which the “CDMF75 IC15” value amounted to 4.6 µM and the IC50 stood at 22.7 µM.

On to `O=C(N[C@@H]1CCc2cc(-c3noc(C(F)F)n3)ccc21)c1ccnc(CO)c1` [Compound 665, (R)-N-(5-(5-(difluoromethyl)-1,2,4-oxadiazol-3-yl)-2,3-dihydro-1H-inden-1-yl)-2-(hydroxymethyl)isonicotinamide], for which the “CDMF75 IC15” value amounted to 0.4 µM and the IC50 was found to be 1.8 µM.

Regarding `Cc1cc(-c2ccc3c(c2)OC[C@H]3NC(=O)c2cnc(C)o2)no1` [Compound 428, (S)-2-methyl-N-(6-(5-methylisoxazol-3-yl)-2,3-dihydrobenzofuran-3-yl)oxazole-5-carboxamide], the “CDMF75 IC15” value stood at 1.0 µM and the IC50 was 3.4 µM.

As for `Cc1cnoc1C(=O)N[C@@H]1CCc2cc(-c3noc(C4COC4)n3)ccc21` [Compound 117, (R)-4-methyl-N-(5-(5-(oxetan-3-yl)-1,2,4-oxadiazol-3-yl)-2,3-dihydro-1H-inden-1-yl)isoxazole-5-carboxamide], the “CDMF75 IC15” value amounted to 1.9 µM and the IC50 was determined as 10.1 µM.

Consider `Cc1nc(-c2ccc3c(c2)OCC3NC(=O)c2ccccc2)no1` (stereo not shown) [Compound 15, N-(6-(5-methyl-1,2,4-oxadiazol-3-yl)-2,3-dihydrobenzofuran-3-yl)benzamide], for which the “CDMF75 IC15” value worked out at 0.6 µM and the IC50 came out at 2 µM.

Turning to `CCC(=O)N[C@@H]1CCc2cc(-c3noc(C(F)F)n3)ccc21` [Compound 283, (R)-N-(5-(5-(difluoromethyl)-1,2,4-oxadiazol-3-yl)-2,3-dihydro-1H-inden-1-yl)propionamide], the “CDMF75 IC15” value stood at 9.6 µM and the IC50 is over 39.2 µM.

As for `COCc1nc(-c2ccc3c(c2)CC[C@H]3NC(=O)c2cc(CO)ccn2)no1` [Compound 672, (R)-4-(hydroxymethyl)-N-(5-(5-(methoxymethyl)-1,2,4-oxadiazol-3-yl)-2,3-dihydro-1H-inden-1-yl)picolinamide], the “CDMF75 IC15” value was determined as 3.2 µM and the IC50 turned out to be 13.7 µM.

Consider `COCc1nc(-c2ccc3c(c2)CC[C@H]3NC(=O)c2cn[nH]c2)no1` [Compound 490, (R)-N-(5-(5-(methoxymethyl)-1,2,4-oxadiazol-3-yl)-2,3-dihydro-1H-inden-1-yl)-1H-pyrazole-4-carboxamide], for which the “CDMF75 IC15” value is 1.6 µM and the IC50 was found to be 6.9 µM.

On to `CN(C)C(=O)N[C@@H]1CCc2cc(-c3noc(C(F)F)n3)ccc21` [Compound 299, (R)-3-(5-(5-(difluoromethyl)-1,2,4-oxadiazol-3-yl)-2,3-dihydro-1H-inden-1-yl)-1,1-dimethylurea], for which the “CDMF75 IC15” value is 6.7 µM and the IC50 amounted to 30.9 µM.

On to `Cc1nc(-c2ccc3c(c2)OCC3NC(=O)c2nnn(C)n2)no1` (stereo not shown) [Compound 199, 2-methyl-N-(6-(5-methyl-1,2,4-oxadiazol-3-yl)-2,3-dihydrobenzofuran-3-yl)-2H-tetrazole-5-carboxamide], for which the “CDMF75 IC15” value was 6.0 µM and the IC50 is 24.1 µM.

Consider `COCc1nc(-c2ccc3c(c2)CC[C@H]3NC(=O)c2cnn(CCO)c2C)no1` [Compound 694, (R)-1-(2-hydroxyethyl)-N-(5-(5-(methoxymethyl)-1,2,4-oxadiazol-3-yl)-2,3-dihydro-1H-inden-1-yl)-5-methyl-1H-pyrazole-4-carboxamide], for which the “CDMF75 IC15” value came out at 1.8 µM and the IC50 was 7 µM.

On to `CC(C)c1nc(-c2ccc3c(c2)CC[C@H]3NC(=O)c2nn[nH]n2)no1` [Compound 499, (R)-N-(5-(5-isopropyl-1,2,4-oxadiazol-3-yl)-2,3-dihydro-1H-inden-1-yl)-2H-tetrazole-5-carboxamide], for which the “CDMF75 IC15” value was 2.4 µM and the IC50 came to 39.2 µM.

Regarding `COCCn1cc(C(=O)N[C@@H]2CCc3cc(-c4noc(C5CC5)n4)ccc32)cn1` [Compound 510, (R)-N-(5-(5-cyclopropyl-1,2,4-oxadiazol-3-yl)-2,3-dihydro-1H-inden-1-yl)-1-(2-methoxyethyl)-1H-pyrazole-4-carboxamide], the “CDMF75 IC15” value turned out to be 1.9 µM and the IC50 worked out at 7.9 µM.

`CCc1nc(-c2ccc3c(c2)CC[C@H]3NC(=O)c2cnn(CCCO)c2C)no1` [Compound 611, (R)-N-(5-(5-ethyl-1,2,4-oxadiazol-3-yl)-2,3-dihydro-1H-inden-1-yl)-1-(3-hydroxypropyl)-5-methyl-1H-pyrazole-4-carboxamide]: the “CDMF75 IC15” value turned out to be 0.7 µM and the IC50 is 2.5 µM.

On to `CCc1nc(-c2ccc3c(c2)CC[C@H]3NC(=O)c2ncncc2C)no1` [Compound 643, (R)-N-(5-(5-ethyl-1,2,4-oxadiazol-3-yl)-2,3-dihydro-1H-inden-1-yl)-5-methylpyrimidine-4-carboxamide], for which the “CDMF75 IC15” value stood at 0.6 µM and the IC50 amounted to 2.1 µM.

On to `Cn1nnnc1C(=O)N[C@@H]1CCc2cc(-c3noc(C(F)F)n3)ccc21` [Compound 189, (R)-N-(5-(5-(difluoromethyl)-1,2,4-oxadiazol-3-yl)-2,3-dihydro-1H-inden-1-yl)-1-methyl-1H-tetrazole-5-carboxamide], for which the “CDMF75 IC15” value came out at 1.4 µM and the IC50 was 5.1 µM.

On to `Cc1cc(C(=O)N[C@@H]2CCc3cc(-c4cc(C(F)F)no4)ccc32)ccn1` [Compound 171, (R)-N-(5-(3-(difluoromethyl)isoxazol-5-yl)-2,3-dihydro-1H-inden-1-yl)-2-methylisonicotinamide], for which the “CDMF75 IC15” value turned out to be 1.7 µM and the IC50 is 6.9 µM.

Take `Cc1cc(C(=O)NC2CCc3cc(-c4nc(C(F)F)no4)ccc32)ccn1` (stereo not shown) [Compound 132, N-(5-(3-(difluoromethyl)-1,2,4-oxadiazol-5-yl)-2,3-dihydro-1H-inden-1-yl)-2-methylisonicotinamide]: the “CDMF75 IC15” value was 4.3 µM and the IC50 stood at 17.7 µM.

As for `Cc1nc(-c2ccc3c(c2)CC[C@H]3NC(=O)c2cccc([C@H](C)O)c2)no1` [Compound 725, 3-((S)-1-hydroxyethyl)-N-((R)-5-(5-methyl-1,2,4-oxadiazol-3-yl)-2,3-dihydro-1H-inden-1-yl)benzamide], the “CDMF75 IC15” value amounted to 0.6 µM and the IC50 amounted to 2.9 µM.

In the case of `Cc1nc(-c2ccc3c(c2)CC[C@H]3NC(=O)c2nncn2C)no1` [Compound 164, (R)-4-methyl-N-(5-(5-methyl-1,2,4-oxadiazol-3-yl)-2,3-dihydro-1H-inden-1-yl)-4H-1,2,4-triazole-3-carboxamide], the “CDMF75 IC15” value was determined as 8.2 µM and the IC50 was over 39.2 µM.

`O=C(NC1CCc2cc(-c3noc(C(F)F)n3)cnc21)c1ccccc1` (stereo not shown) [Compound 94, N-(3-(5-(difluoromethyl)-1,2,4-oxadiazol-3-yl)-6,7-dihydro-5H-cyclopenta[b]pyridin-7-yl)benzamide]: the “CDMF75 IC15” value was 5.2 µM and the IC50 was 26.6 µM.
